# Assays:
# AMPK = experiment: Activation of AMPK (data not shown); type: biochemical; details: read-out: concentration giving half-maximal activation
# AMPK-γ2 CBS3-4 construct = target: T1, AMPK-γ2 CBS3-4 construct (Homo sapiens, UniProt Q9UGJ0); experiment: Displacement of AMP by AMP-S (competitive binding assay)
# T1 construct: the C-terminal pair (CBS3-4, residues 430-556); made in house; host or cells: E. coli BL21 (DE3), vector pGEX-KG
# Method: (§1) Various concentrations of [^14C]-AMP, [γ^32P] […] Reactions were stopped by spotting 10 ìl onto a Millipore MF Filter Membrane disc and rapidly washing under high vacuum with 1 ml of ice-cold TBS. Radioactivity was determined on the filters by scintillation counting. Non-specific binding (which was trivial) was determined by performing the assay with GST as a control, and was subtracted. […] Data were fitted to the binding models given in the text, using GraphPad Prism 3. Estimates of parameters resulting from fits are quoted in the text and Table 1±standard error, and the curves shown in figures are theoretical curves obtained using those estimates.
# [1] = target: T2, cystathionine â-synthase CBS domain pair D444N (Homo sapiens, UniProt P35520, D444N); experiment: Filter binding assay, GST-CBS domain fusion
# T2 construct: 416-551 of cystathionine â-synthase; made in house; host or cells: E. coli BL21 (DE3)
# Text: (§2) Finally, DNA encoding the C-terminal CBS domain pair from the enzyme cystathionine â-synthase was cloned and expressed.
# (§3) For IMPDH2, DNAs encoding residues 112-232 or the full-length protein (1-514) were amplified using human liver cDNA (Clontech) as template, and cloned into pHAT20 (Clontech) using 5′-AgeI and 3′-KpnI sites added to the primers. For the other constructs, DNAs encoding residues 582-840 of CLC2, or 416-551 of cystathionine â-synthase, were amplified using human liver cDNA as template, and cloned into pGEX-KG as above using 5′-BamHI and 3′-XhoI sites added to the primers. All mutations were created using the Stratagene QuikChange Site-directed Mutagenesis system.
# as §1
# [2] = target: T3, cystathionine â-synthase CBS1-2 (WT) (Homo sapiens, UniProt P35520); experiment: Filter binding assay, GST-CBS domain fusion; details: single-site model
# T3 construct: 416-551 of cystathionine â-synthase; made in house; host or cells: E. coli BL21 (DE3)
# Text: as §2, §3, §1
# [3] = target: wild type cystathionine â-synthase (Homo sapiens, UniProt P35520); details: read-out: half-maximal effect (activation); cited from earlier work
# [4] = target: cystathionine â-synthase D444N mutant (Homo sapiens, UniProt P35520, D444N); details: concentrations of SAM up to 300 μM; cited from earlier work
# T1 sequence (Q9UGJ0 430-556): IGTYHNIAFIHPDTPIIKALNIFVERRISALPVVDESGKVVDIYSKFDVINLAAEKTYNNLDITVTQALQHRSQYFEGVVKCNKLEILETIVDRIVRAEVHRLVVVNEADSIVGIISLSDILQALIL
increase in Kd relative to wild type [1] [fold],Kd ([1]; single-site model) [µM],Kd [2] [µM],SMILES,EC50 (AMPK) [µM],Kd fold lower than the Kd of CBS3-4 for AMP (AMPK-γ2 CBS3-4 construct) [fold],Kd (AMPK-γ2 CBS3-4 construct; read-out: Kd from single site competitive binding model) [µM],EC50 [3] [µM],activation [4]
,,,"Nc1ncnc2c1ncn2[C@@H]1O[C@H](COP(O)(O)=S)[C@@H](O)[C@H]1O [AMP-S, adenosine 5′-O-monothiophosphate]",3.1,2,48 ± 12,,
15,510 ± 70,34,C[S+](CC[C@H](N)C(=O)O)C[C@H]1O[C@@H](n2cnc3c(N)ncnc32)[C@H](O)[C@@H]1O (some centres unmarked) [S-adenosyl methionine],,,,~20,not significantly activated
